Where two headings read alike, the source gives them in different places.
Columns and labels:
in vitro [1] = assay: in vitro; set-up: species or system CCD841, HEK293; conditions: human, hb2 cells, read-out: HB-2 Cells Viability (%)
in vitro [2] = assay: in vitro; set-up: species or system HB2, HEK293; conditions: human, ccd841 cells
in vitro [3] = assay: in vitro; set-up: species or system HB2, CCD841; conditions: human, hek293 cells
NUDT7 = target: T1, NUDT7 (Homo sapiens, UniProt P0C024); set-up: Intact protein LC/MS covalent labelling, fragments in pools of five, 200 uM each, 4 °C; conditions: 24 h, 4 °C, pool of five; 200 µM; covalent
T1 construct: residues 14-235, E. coli, pNIC28-Bsa4, N-terminal His6 tag removed by TEV, construct 26672 Da

BSA = target: T2, BSA (Bos taurus, UniProt P02769); set-up: Intact protein LC/MS covalent labelling, fragments in pools of five, 200 uM each, 4 °C; conditions: 24 h, 4 °C, pool of five; 200 µM; covalent
T2 construct: gene ALB

OTUB2 (OTUB2A) = target: T3, OTUB2 (OTUB2A) (Homo sapiens, UniProt Q96DC9); set-up: Intact protein LC/MS covalent labelling, fragments in pools of five, 200 uM each, 4 °C; conditions: 24 h, 4 °C, pool of five; 200 µM; covalent
T3 construct: full length residues 1-234, E. coli BL21(DE3)-R3, His tag removed by TEV, construct 27312 Da
T3 sequence (Q96DC9 1-234): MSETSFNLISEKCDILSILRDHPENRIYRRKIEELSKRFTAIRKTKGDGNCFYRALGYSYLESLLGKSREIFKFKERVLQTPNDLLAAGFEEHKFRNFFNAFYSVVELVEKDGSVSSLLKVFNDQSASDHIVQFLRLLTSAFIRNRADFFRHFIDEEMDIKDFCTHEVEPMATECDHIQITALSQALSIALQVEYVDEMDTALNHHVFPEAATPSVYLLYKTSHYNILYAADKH

PCAF = target: T4, PCAF (Homo sapiens, UniProt Q92831); set-up: Intact protein LC/MS covalent labelling, fragments in pools of five, 200 uM each, 4 °C; conditions: 24 h, 4 °C, pool of five; 200 µM; covalent
T4 construct: gene KAT2B
T4 sequence (Q92831 whole entry, the tested form may be a part): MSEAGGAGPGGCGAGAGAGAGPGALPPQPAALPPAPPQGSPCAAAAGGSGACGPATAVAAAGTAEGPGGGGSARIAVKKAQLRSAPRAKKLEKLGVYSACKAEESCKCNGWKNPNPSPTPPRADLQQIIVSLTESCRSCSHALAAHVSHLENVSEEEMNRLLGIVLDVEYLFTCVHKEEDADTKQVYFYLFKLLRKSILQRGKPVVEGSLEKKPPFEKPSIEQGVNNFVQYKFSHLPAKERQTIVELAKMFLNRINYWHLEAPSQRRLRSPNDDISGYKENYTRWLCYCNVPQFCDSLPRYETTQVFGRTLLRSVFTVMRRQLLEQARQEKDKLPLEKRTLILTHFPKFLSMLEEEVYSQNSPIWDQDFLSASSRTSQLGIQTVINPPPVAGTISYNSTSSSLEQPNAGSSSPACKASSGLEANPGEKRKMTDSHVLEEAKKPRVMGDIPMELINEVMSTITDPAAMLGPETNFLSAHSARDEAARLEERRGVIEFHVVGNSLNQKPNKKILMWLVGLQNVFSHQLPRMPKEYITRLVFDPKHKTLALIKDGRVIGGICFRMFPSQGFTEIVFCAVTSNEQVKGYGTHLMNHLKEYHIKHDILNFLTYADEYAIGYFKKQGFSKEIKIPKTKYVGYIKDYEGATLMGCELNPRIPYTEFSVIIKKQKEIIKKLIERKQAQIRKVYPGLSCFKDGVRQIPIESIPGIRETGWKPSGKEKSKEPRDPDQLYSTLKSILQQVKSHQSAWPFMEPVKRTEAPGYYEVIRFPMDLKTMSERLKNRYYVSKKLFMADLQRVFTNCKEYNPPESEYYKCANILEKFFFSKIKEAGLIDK

T2 sequence (P02769 whole entry, the tested form may be a part): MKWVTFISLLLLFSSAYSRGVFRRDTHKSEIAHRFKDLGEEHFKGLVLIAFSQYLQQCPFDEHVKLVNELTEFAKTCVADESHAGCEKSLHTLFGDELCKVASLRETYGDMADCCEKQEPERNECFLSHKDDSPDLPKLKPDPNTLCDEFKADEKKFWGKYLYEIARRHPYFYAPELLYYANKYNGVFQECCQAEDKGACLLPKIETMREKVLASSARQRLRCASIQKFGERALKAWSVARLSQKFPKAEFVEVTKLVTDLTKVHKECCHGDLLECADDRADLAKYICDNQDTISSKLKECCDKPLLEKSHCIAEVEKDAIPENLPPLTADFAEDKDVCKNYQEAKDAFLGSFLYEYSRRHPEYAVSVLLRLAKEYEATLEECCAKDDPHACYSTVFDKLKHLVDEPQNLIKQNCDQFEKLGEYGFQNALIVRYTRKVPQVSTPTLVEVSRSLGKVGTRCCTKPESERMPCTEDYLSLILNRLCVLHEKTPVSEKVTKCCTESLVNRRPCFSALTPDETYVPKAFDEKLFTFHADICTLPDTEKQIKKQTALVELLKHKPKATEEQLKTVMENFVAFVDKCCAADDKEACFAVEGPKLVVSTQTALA
T1 sequence (P0C024 14-235): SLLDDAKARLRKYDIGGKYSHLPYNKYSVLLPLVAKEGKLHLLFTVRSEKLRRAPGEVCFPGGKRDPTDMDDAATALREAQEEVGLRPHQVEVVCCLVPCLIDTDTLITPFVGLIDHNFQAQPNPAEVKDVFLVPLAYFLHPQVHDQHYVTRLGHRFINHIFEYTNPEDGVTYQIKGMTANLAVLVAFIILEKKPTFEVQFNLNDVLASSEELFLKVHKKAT

SMILES	NUDT7 (NUDT7)	BSA (BSA)	OTUB2 (OTUB2 (OTUB2A))	PCAF (PCAF)	viability at 48 h, 10 µM (in vitro [1])	viability at 48 h, 10 µM (in vitro [2])	viability at 48 h, 10 µM (in vitro [3])
Cc1ccc(C)c(NC(=O)CCl)c1 [PCM-0102398]	0	0	0	0	59.4%	62.3%	51.5%
Cc1ccc(CN(C)C(=O)CCl)o1 [PCM-0102399]	0.05	0	0	0	25.7%	56.5%	31.8%
CC(NC(=O)CCl)C12CC3CC(CC(C3)C1)C2 (stereo not drawn) [PCM-0102402]	0.07	0	0.24	0	67.3%	73.3%	55.2%
Cl.O=C(CCl)N1CCN(C2CCS(=O)(=O)C2)CC1 (stereo not drawn) [PCM-0102405]	0	0	0	0	107%	87.8%	90.2%
O=C(CCl)Nc1ccc([N+](=O)[O-])cc1C(F)(F)F [PCM-0102406]	0	0	0	0	81.5%	83.1%	71.9%
O=C(CCl)Nc1ccc2c(c1)OCCCO2 [PCM-0102409]	0.1	0	0.23	0	29.6%	51.7%	6.9%
COc1cccc(NC(=O)CCl)c1 [PCM-0102410]	0	0.21	0	0	34.1%	63.5%	7.5%
O=C(CCl)NC(=O)NC1CC1 [PCM-0102411]	0	0	0	0	96.7%	84.9%	109%
O=C(CCl)Nc1cc(Cl)ccc1C(=O)O [PCM-0102412]	0.16	0	0.07	0	99.3%	100%	89.4%
C=CC(=O)Nc1cccc(F)c1C [PCM-0102413]	0	0	0	0	100%	86%	86.8%
O=C(CCl)N1CCSc2ccccc21 [PCM-0102415]	0.1	0	0.16	0	30.2%	60.6%	22.4%
CS(=O)(=O)N1CCN(C(=O)CCl)CC1 [PCM-0102417]	0	0	0	0	89.4%	78.8%	70.1%
C=CC(=O)N1CCN(C(=O)OC(C)(C)C)CC1 [PCM-0102419]	0.16	0	0	0	100%	104%	90.3%
CC1CCc2c(sc(NC(=O)CCl)c2C#N)C1 (stereo not drawn) [PCM-0102420]	0.47	0	0	0	50.9%	81.6%	43.4%

More lines, main results first:

NUDT7 (NUDT7)	BSA (BSA)	OTUB2 (OTUB2 (OTUB2A))	PCAF (PCAF)	SMILES	viability at 48 h, 10 µM (in vitro [1])	viability at 48 h, 10 µM (in vitro [2])	viability at 48 h, 10 µM (in vitro [3])
0	0	0	0	O=C(CCl)NC(=O)c1ccccc1Cl [PCM-0102422]	99.7%	110%	93%
0	0	0.09	0	C=CC(=O)N1CCC(n2cc(C)cn2)CC1 [PCM-0102423]	104%	108%	92.5%
0.28	0	0	0	O=C(CCl)N1CCCC(c2nc3ccccc3s2)C1 (stereo not drawn) [PCM-0102425]	4.1%	3.5%	9.4%
0	0	0.6	0	O=C(CCl)NNC(=O)c1cccs1 [PCM-0102426]	86%	88.7%	82.8%
0	0	0	0	CC1(c2ccccc2)NC(=O)N(NC(=O)CCl)C1=O (stereo not drawn) [PCM-0102428]	91.2%	81.4%	103%
0	0	0.31	0	O=C(CCl)NNC(=O)c1ccc(F)cc1 [PCM-0102430]	94.9%	93.2%	93.4%
0.2	0	0.26	0.44	C=CC(=O)N1CCCC(Cc2nccn2C)C1 (stereo not drawn) [PCM-0102433]	94.7%	97.8%	92.9%
0	0	0	0	CCC1CN(C(=O)CCl)CCO1 (stereo not drawn) [PCM-0102436]	85.5%	79.3%	71.4%
0	0	0	0	C=CC(=O)N1CCC(n2nnc3c2CCCC3)CC1 [PCM-0102437]	106%	92.9%	91.5%
0.14	0	0.08	0	CC(c1ccc(F)c(F)c1)N(C)C(=O)CCl (stereo not drawn) [PCM-0102438]	23.2%	39.3%	16.4%
0	0	0	0	C=CC(=O)N1CCOC2(CCc3ccccc32)C1 (stereo not drawn) [PCM-0102439]	99.3%	105%	92.3%
0.08	0	0	0	C=CC(=O)NC1CCCCC1n1cccn1 (stereo not drawn) [PCM-0102440]	91.4%	100%	98.5%
0	0	0	0	C=CC(=O)N1CCN(c2nc3ccccc3o2)C(C)C1 (stereo not drawn) [PCM-0102441]	96.7%	99.4%	88.3%
0	0	0.24	0	C=CC(=O)N1CC2CC3CC(C2)CC1C3 [PCM-0102443]	99.9%	115%	97.7%
0	0	0	0	C=CC(=O)N1CCC(N2CCS(=O)(=O)CC2)CC1 [PCM-0102444]	102%	109%	93.6%
0.38	0	0	0	C=CC(=O)NC1(CO)Cc2ccccc2C1 [PCM-0102446]	101%	103%	88.4%
0	0	0	0	C=CC(=O)N1C(C)CNCC1C.O=C(O)C(F)(F)F (stereo not drawn) [PCM-0102447]	104%	109%	105%
0.05	0	0	0	C=CC(=O)NCC1=CCCOC1 [PCM-0102448]	102%	104%	79.4%
0	0	0	0	C=CC(=O)N1CCN(C(=O)OCC(C)C)CC1 [PCM-0102449]	103%	80.1%	76.6%

— article PMC6556873, “Rapid Covalent-Probe Discovery by Electrophile-Fragment Screening” (Journal of the American Chemical Society, 2019)
